Data on one molecule can be found in patent US20220105096A1, “INHIBITORS OF HUMAN IMMUNODEFICIENCY VIRUS REPLICATION” (ViiV HEALTHCARE UK (NO.5) LIMITED, priority 2019, published 2022).

The nature of series [1]: Pharmacokinetic parameters in vivo, mouse. The arrangement: species or system male CD1 mice. The conditions noted are these: male, CD1, plasma. The procedure:
(§1) PK was investigated in male CD1 mice, Wistar Han Rats, Cynomolgus monkeys, and Beagle Dogs. Two groups of animals (N=3 per group) received test compound either as an intravenous (IV) dose (1 mg/kg) or by oral gavage (5 mg/kg solution and suspension). Drug was formulated in 90% PEG 400, 10% ethanol for IV administration and in 90% PEG400, 5% ethanol for PO administration. Blood samples were collected at 0.167, 0.25, 0.5, 0.75, 1, 2, 3, 5, 7, 24, 48, 72 and 96 h post dose for IV; 0.25, 0.5, 0.75, 1, 2, 3, 5, 7, 24, 48, 72 and 96 h post dose for oral. Blood samples were collected into K3EDTA tubes and centrifuged at 1500 to 2000×g to obtain plasma. Plasma samples were stored at −20° C. until analysis by LC-MS/MS. All […] samples were injected on an Exion LC 4500 Triple Quad™ LC-MS/MS system. The analytical column used was a Phenomenex C18 (C18, 4.6 mm×50 mm, 5 μm) maintained at room temperature. Mobile Phase A consisted of 0.1% (v/v) formic acid in MilliQ water. Mobile Phase B consisted of 100% methanol. The flow rate was 1 mL/min. […] All LC-MS/MS analysis parameters are captured electronically in the raw data files. The PK parameters were obtained by non-compartmental analysis of plasma concentration vs time data (Phoenix WinNonlin v8). The peak concentration (Cmax) and time for Cmax (Tmax) were recorded directly from experimental observations. The area under the curve from time zero to the last sampling time [AUC0-T] and the area under the curve from time zero to infinity [AUCINF] were calculated using a combination of linear and log trapezoidal summations. The total plasma clearance (CLTp), steady-state volume of distribution (Vss), apparent elimination half-life (T-HALF), and mean residence time (MRT) were estimated after IV administration. Estimations of AUC and T-HALF were made using a minimum of three timepoints with quantifiable concentrations. The absolute oral bioavailability (F) was estimated as the ratio of dose-normalized AUC values following oral and IV doses.

Series [2] has as its system primary human hepatocytes. Put plainly: Cytotoxicity assessed in parallel in the CYP induction assay. The class given is cell-based. The settings on record: concentrations tested up to 30 μM, 48 hours. The procedure:
Compounds were tested in a CYP induction assay using inducible cryopreserved human primary hepatocytes from three donors to determine the potential to cause induction (as measured by an increase in mRNA transcription) of CYP2B6. Test compounds (0.12 to 30 μM final concentration) were incubated for 48 hours with primary human hepatocytes naturally expressing all nuclear receptors involved in regulation of expression levels of various CYP enzymes. Fresh solutions of test compounds and controls were diluted in assay media and added every 24 hours for two consecutive days, with a final DMSO concentration of 0.1%. At the end of the incubation, the integrity of cell monolayers, cell density and viability were evaluated to assess cytotoxicity effects. […] It was then used in reverse transcription polymerase chain reactions (RT-PCR) to quantify the amount of specific mRNA species encoding human CYP3A4, CYP2B6, and CYP1A2 genes.
The induction potential of test compounds and controls was compared to known CYP2B6 inducer Phenobarbital (1000 μM). The results of this assay are expressed as fold induction. Fold induction was calculated as a ratio of mRNA level in cells treated with test compound over that in cells treated with DMSO (solvent control) alone, the basal mRNA level, and thus represents the induction potential of the test compound. […]

Series [3] can be described thus: Pharmacokinetic parameters in vivo, rat. Details: species or system Wistar Han Rats. The settings on record: Wistar Han, plasma. On the procedure:
as §1

Series [4] in a line: Metabolism in dog liver microsomes. The class given is in vitro ADME. On the procedure: (§2) Liver microsomes from human, rat dog and monkey were thawed and diluted to a final concentration of 1 mg/mL in 100 mM potassium phosphate buffer (pH 7.4). Test compounds and controls were prepared at 100× final concentration of 1 μM in 1:1 acetonitrile:water (v/v) and aliquoted into microsomal mixture. The mixture was preincubated at 37° C. in a shaking water bath for 10 minutes. The incubations were performed in duplicate. Three controls were included in the incubations; warfarin, phenacetin, and verapamil. After the preincubation, the reaction was initiated with NADPH at a final concentration of 1 mM. At 0, 5, 15, 30, 45 and 60 minutes, 25 μL of sample was removed and quenched with 300 μL of acetonitrile containing internal standard (Telmisartan). The samples were vortexed for 5 minutes at 1200 rpm and then centrifuged at 4000 rpm for 10 min. A 100 μL aliquot of supernatant was diluted three-fold with water and injected on an Exion LC 4500 Triple Quad LC-MS/MS system. Results were reported as a percentage of parent remaining and was calculated from peak area ratios of test compound remaining after at each time point and compared to time zero incubation.
(In general: Microsomes from liver hold many membrane-bound enzymes, among them those of drug oxidation.)

Series [5] in a line: Metabolism in human liver microsomes. The class given is in vitro ADME. The conditions noted are these: pH 7.4, 1 μM compound, 1 mg/mL microsomes, NADPH, 37° C., read-out: Human liver microsome T1/2. The procedure: as §2
A short description of series [6]: Cytotoxicity in uninfected MT2 cells, XTT colorimetric assay. The class given is cell-based. The settings on record: human, day 4, XTT, read-out: cytotoxic CC50. On the procedure:
Compound cytotoxicity and the corresponding CC50 values were determined using the same protocol as described in the antiviral assay except that uninfected cells were used. Cytotoxicity was assessed on day 4 in uninfected MT2 cells by using an XTT (2,3-bis[2-Methoxy-4-nitro-5-sulfophenyl]-2H-tetrazolium-5-carboxanilide inner salt)-based colorimetric assay (Sigma-Aldrich, St Louis, Mo.).
(Formazan colour is commonly taken as a measure of viable cells.)

One may read the clearance as the volume of plasma or blood freed of the substance per unit of time. What is called bioavailability is dose-corrected exposure relative to a reference, in per cent. Usually CC50 stands for the concentration at which the toxic effect on the cells reaches its halfway point. On to `Cn1nc(NS(C)(=O)=O)c2c(Cl)ccc(-n3c([C@H](Cc4cc(F)cc(F)c4)NC(=O)Cn4nc(C(F)F)c5c4C(F)(F)[C@@H]4C[C@H]54)nc4nc(OCCC(C)(F)F)ccc4c3=O)c21` (atropisomer, axis not shown; (P)) [Example 1, N—((S)-1-((3P)-3-(4-chloro-1-methyl-3-(methylsulfonamido)-1H-indazol-7-yl)-7-(3,3-difluorobutoxy)-4-oxo-3,4-dihydropyrido[2,3-d]pyrimidin-2-yl)-2-(3,5-difluorophenyl)ethyl)-2-((3bS,4aR)-3-(difluoromethyl)-5,5-difluoro-3b,4,4a,5-tetrahydro-1H-cyclopropa[3,4]cyclopenta[1,2-c]pyrazol-1-yl)acetamide], for which the clearance in series [1] (IV 1 mg/kg) amounted to 1.77 mL/min/kg; in series [3] (IV 1 mg/kg), 3.6 mL/min/kg. Also, the half-life is 7.8 h in series [1] (IV 1 mg/kg) and 10.2 h in series [3] (IV 1 mg/kg). Also, the Vd in series [1] (IV 1 mg/kg, read-out: Vss) worked out at 1.14 L/kg; in series [3] (IV 1 mg/kg, read-out: Vss), 1.76 L/kg. The bioavailability in series [1] (oral gavage 5 mg/kg vs IV 1 mg/kg) was 76.7%; in series [3] (oral gavage 5 mg/kg solution vs IV 1 mg/kg) it was 57.5%. The “cytotoxicity in CYP induction assay” value in series [2] is on record as “No cytotoxicity was observed”. In series [4] (Example 1 versus Example 60.2), the “stability in dog liver microsomes relative to Example 60.2” value was “at least seven times more stable”. The half-life at 1 μM in series [4] (dog, liver microsomes, pH 7.4, 1 μM compound, 1 mg/mL microsomes, NADPH, 37° C., read-out: Dog liver microsome T1/2) was above 2 h; in series [5], above 2 h. In addition, the CC50 at 4 days in series [6] was above 10 µM.
